Like-named read-outs stand apart in the source and are kept apart here. Marks after values point to notes of the source that are not given here.
Key:
CD4 co-receptor = conditions: With-A
Experimental: (§1) The Analysis was performed by flow cytometry, using fluorescence intensity histograms, which allowed us to identify three regions: expression negative, low and high.

CD8 co-receptor = conditions: With-A
Experimental: as §1

thymocytes = test system: thymocytes
Experimental: For that, we made organ culture in agarose gels and a filter with pores of 5 micron to prevent migration of the thymocytes. The Apoptosis was quantified with 7AAD and it was evaluated by flow cytometry.

[1] = test system: antibodies vs. LR.4 cells
Experimental: This was performed by flow cytometry. LR.4 cells were washed and incubated in serum dilutions obtained from mice, using as second antibody an antibody vs. mouse conjugated to fluoresce.

LR.4 lymphoma [2] = conditions: LR.4 + IMMP
From the text: Thymus and spleen were studied since they correspond to lymphatic organs, liver which corresponds to the main organ to which the metastases of abdominal tumors and kidney are directed are directed by their high blood irrigation.

LR.4 cells = test system: LR.4 cells
From the text: The cellular viability that was quantified by the MTT method, indicates the mitochondrial activity.

THP-1 cells = conditions: IMMP 10^−10M, no cortisone
LR.4 lymphoma [3] = test system: LR.4 lymphoma
platelets [4] = test system: platelets
platelets [5] = conditions: three dosages

## Peptide LEDGPKFL + Zinc [IMMP]
CD4 co-receptor; [IMMP] 10^−6 M
  Expression Intensity of CD4, Fluorescence, High: 193.0 ± 3.3 arbitrary fluorescence intensity units
  Expression Intensity of CD4, Fluorescence, Low: 72.9 ± 7.4 arbitrary fluorescence intensity units
  Expression Intensity of CD4, Fluorescence, Negative: 5.0 ± 0.9 arbitrary fluorescence intensity units
CD4 co-receptor; [IMMP] 10^−7 M
  Expression Intensity of CD4, Fluorescence, High: 188.4 ± 4.9 arbitrary fluorescence intensity units
  Expression Intensity of CD4, Fluorescence, Low: 68.6 ± 8.0 arbitrary fluorescence intensity units
  Expression Intensity of CD4, Fluorescence, Negative: 4.5 ± 0.9 arbitrary fluorescence intensity units
CD4 co-receptor; [IMMP] 10^−8 M
  Expression Intensity of CD4, Fluorescence, High: 181.1 ± 4.7 arbitrary fluorescence intensity units
  Expression Intensity of CD4, Fluorescence, Low: 71.0 ± 6.4 arbitrary fluorescence intensity units
  Expression Intensity of CD4, Fluorescence, Negative: 4.7 ± 0.3 arbitrary fluorescence intensity units
CD4 co-receptor; [IMMP] 10^−9 M
  Expression Intensity of CD4, Fluorescence, High: 196.1 ± 5.4 arbitrary fluorescence intensity units
  Expression Intensity of CD4, Fluorescence, Low: 69.5 ± 5.0 arbitrary fluorescence intensity units
  Expression Intensity of CD4, Fluorescence, Negative: 4.5 ± 0.1 arbitrary fluorescence intensity units
CD4 co-receptor; [IMMP] 10^−10 M
  Expression Intensity of CD4, Fluorescence, High: 194.1 ± 10.0 arbitrary fluorescence intensity units
  Expression Intensity of CD4, Fluorescence, Low: 69.6 ± 5.2 arbitrary fluorescence intensity units
  Expression Intensity of CD4, Fluorescence, Negative: 5.0 ± 0.4 arbitrary fluorescence intensity units
CD4 co-receptor; [IMMP] 10^−11 M
  Expression Intensity of CD4, Fluorescence, High: 196.1 ± 5.4 arbitrary fluorescence intensity units
  Expression Intensity of CD4, Fluorescence, Low: 69.5 ± 7.0 arbitrary fluorescence intensity units
  Expression Intensity of CD4, Fluorescence, Negative: 4.5 ± 0.1 arbitrary fluorescence intensity units
CD4 co-receptor; [IMMP] 10^−12 M
  Expression Intensity of CD4, Fluorescence, High: 194.1 ± 7.3 arbitrary fluorescence intensity units
  Expression Intensity of CD4, Fluorescence, Low: 69.6 ± 7.2 arbitrary fluorescence intensity units
  Expression Intensity of CD4, Fluorescence, Negative: 5.0 ± 0.4 arbitrary fluorescence intensity units
CD8 co-receptor; [IMMP] 10^−6 M
  Expression Intensity of CD8, Fluorescence, High: 135.9 ± 3.3 arbitrary fluorescence intensity units
  Expression Intensity of CD8, Fluorescence, Low: 49.9 ± 37.4 arbitrary fluorescence intensity units
  Expression Intensity of CD8, Fluorescence, Negative: 3.1 ± 0.5 arbitrary fluorescence intensity units
CD8 co-receptor; [IMMP] 10^−7 M
  Expression Intensity of CD8, Fluorescence, High: 134.5 ± 4.9 arbitrary fluorescence intensity units
  Expression Intensity of CD8, Fluorescence, Low: 55.1 ± 4.9 arbitrary fluorescence intensity units
  Expression Intensity of CD8, Fluorescence, Negative: 2.4 ± 0.9 arbitrary fluorescence intensity units
CD8 co-receptor; [IMMP] 10^−8 M
  Expression Intensity of CD8, Fluorescence, High: 126.1 ± 4.7 arbitrary fluorescence intensity units
  Expression Intensity of CD8, Fluorescence, Low: 39.2 ± 5.4 arbitrary fluorescence intensity units
  Expression Intensity of CD8, Fluorescence, Negative: 3.2 ± 0.3 arbitrary fluorescence intensity units
CD8 co-receptor; [IMMP] 10^−9 M
  Expression Intensity of CD8, Fluorescence, High: 139.8 ± 5.4 arbitrary fluorescence intensity units
  Expression Intensity of CD8, Fluorescence, Low: 32.7 ± 5.0 arbitrary fluorescence intensity units
  Expression Intensity of CD8, Fluorescence, Negative: 3.2 ± 0.1 arbitrary fluorescence intensity units
CD8 co-receptor; [IMMP] 10^−10 M
  Expression Intensity of CD8, Fluorescence, High: 126.5 ± 7.3 arbitrary fluorescence intensity units
  Expression Intensity of CD8, Fluorescence, Low: 45.8 ± 3.2 arbitrary fluorescence intensity units
  Expression Intensity of CD8, Fluorescence, Negative: 4.1 ± 0.4 arbitrary fluorescence intensity units
CD8 co-receptor; [IMMP] 10^−11 M
  Expression Intensity of CD8, Fluorescence, High: 196.1 ± 5.4 arbitrary fluorescence intensity units
  Expression Intensity of CD8, Fluorescence, Low: 56.5 ± 4.0 arbitrary fluorescence intensity units
  Expression Intensity of CD8, Fluorescence, Negative: 3.5 ± 0.1 arbitrary fluorescence intensity units
CD8 co-receptor; [IMMP] 10^−12 M
  Expression Intensity of CD8, Fluorescence, High: 194.1 ± 7.3 arbitrary fluorescence intensity units
  Expression Intensity of CD8, Fluorescence, Low: 58.1 ± 3.2 arbitrary fluorescence intensity units
  Expression Intensity of CD8, Fluorescence, Negative: 2.0 ± 0.4 arbitrary fluorescence intensity units
thymocytes; [IMMP] 10^−8
  Thymocytes in apoptosis (%): 1.6 ± 0.8 %
thymocytes; [IMMP] 10^−9
  Thymocytes in apoptosis (%): 1.7 ± 0.7 %
thymocytes; [IMMP] 10^−10
  Thymocytes in apoptosis (%): 1.5 ± 0.09 %
thymocytes; [IMMP] 10^−11
  Thymocytes in apoptosis (%): 2.5 ± 0.91%
[1]; IMMP alone, no tumor, serum dilution 0
  % of LR.4 cells stained with the serum antibody: 0%
[1]; IMMP alone, no tumor, serum dilution 1:2
  % of LR.4 cells stained with the serum antibody: 0%
[1]; IMMP alone, no tumor, serum dilution 1:4
  % of LR.4 cells stained with the serum antibody: 0%
[1]; IMMP alone, no tumor, serum dilution 1:8
  % of LR.4 cells stained with the serum antibody: 0%
[1]; IMMP alone, no tumor, serum dilution 1:16
  % of LR.4 cells stained with the serum antibody: 0%
[1]; IMMP alone, no tumor, serum dilution 1:32
  % of LR.4 cells stained with the serum antibody: 0%
[1]; IMMP alone, no tumor, serum dilution 1:64
  % of LR.4 cells stained with the serum antibody: 0%
[1]; LR.4 + IMMP, serum dilution 0
  % of LR.4 cells stained with the serum antibody: 100%
[1]; LR.4 + IMMP, serum dilution 1:2
  % of LR.4 cells stained with the serum antibody: 100%
[1]; LR.4 + IMMP, serum dilution 1:4
  % of LR.4 cells stained with the serum antibody: 100%
[1]; LR.4 + IMMP, serum dilution 1:8
  % of LR.4 cells stained with the serum antibody: 100%
[1]; LR.4 + IMMP, serum dilution 1:16
  % of LR.4 cells stained with the serum antibody: 83%
[1]; LR.4 + IMMP, serum dilution 1:32
  % of LR.4 cells stained with the serum antibody: 40%
[1]; LR.4 + IMMP, serum dilution 1:64
  % of LR.4 cells stained with the serum antibody: 15%
[1]; mouse, in vivo
  Antibodies vs tumor relative to untreated group: four times more antibodies
LR.4 lymphoma [2]; Kidney
  Metastases (animals with metastases detected/total number of animals): 0/5
LR.4 lymphoma [2]; Liver
  Metastases (animals with metastases detected/total number of animals): 0/5
LR.4 lymphoma [2]; Spleen
  Metastases (animals with metastases detected/total number of animals): 0/5
LR.4 lymphoma [2]; Thymus
  Metastases (animals with metastases detected/total number of animals): 0/5
LR.4 cells
  Increase of LR.4 cells: 20%
LR.4 cells; IMMP (M) −8
  Cells proliferation (control percent, MTT): 115 ± 5.4 %
LR.4 cells; IMMP (M) −9
  Cells proliferation (control percent, MTT): 118 ± 6.7 %
LR.4 cells; IMMP (M) −10
  Cells proliferation (control percent, MTT): 120 ± 8.5 %
LR.4 cells; IMMP (M) −11
  Cells proliferation (control percent, MTT): 110 ± 10.9 %
LR.4 cells; IMMP (M) −12
  Cells proliferation (control percent, MTT): 104 ± 4.3%
THP-1 cells
  Cell Viability (% with respect to the control): 180 ± 5%
LR.4 lymphoma [3]; IMMP alone, no tumor, week 0
  Body weight (control percent): 100 ± 2%
  Survival (percent of live animals): 100%
LR.4 lymphoma [3]; IMMP alone, no tumor, week 1
  Body weight (control percent): 100 ± 4%
  Survival (percent of live animals): 100%
LR.4 lymphoma [3]; IMMP alone, no tumor, week 2
  Body weight (control percent): 100 ± 5%
  Survival (percent of live animals): 100%
LR.4 lymphoma [3]; IMMP alone, no tumor, week 3
  Body weight (control percent): 100 ± 3%
  Survival (percent of live animals): 100%
LR.4 lymphoma [3]; IMMP alone, no tumor, week 4
  Body weight (control percent): 100 ± 3%
  Survival (percent of live animals): 100%
LR.4 lymphoma [3]; IMMP alone, no tumor, week 5
  Body weight (control percent): 100 ± 4%
  Survival (percent of live animals): 100%
LR.4 lymphoma [3]; IMMP alone, no tumor, week 6
  Body weight (control percent): 100 ± 3%
  Survival (percent of live animals): 100%
LR.4 lymphoma [3]; IMMP alone, no tumor, week 7
  Body weight (control percent): 100 ± 5%
  Survival (percent of live animals): 100%
LR.4 lymphoma [3]; IMMP alone, no tumor, week 8
  Survival (percent of live animals): 100%
LR.4 lymphoma [3]; IMMP alone, no tumor, week 9
  Survival (percent of live animals): 100%
LR.4 lymphoma [3]; IMMP alone, no tumor, week 10
  Survival (percent of live animals): 100%
LR.4 lymphoma [3]; IMMP alone, no tumor, week 11
  Survival (percent of live animals): 100%
LR.4 lymphoma [3]; IMMP alone, no tumor, week 12
  Survival (percent of live animals): 100%
LR.4 lymphoma [3]; IMMP alone, no tumor, week 13
  Survival (percent of live animals): 100%
LR.4 lymphoma [3]; IMMP alone, no tumor, week 14
  Survival (percent of live animals): 100%
LR.4 lymphoma [3]; LR.4 + IMMP, week 0
  Body weight (control percent): 100 ± 2%
  Survival (percent of live animals): 100%
LR.4 lymphoma [3]; LR.4 + IMMP, week 1
  Body weight (control percent): 101 ± 4%
  Survival (percent of live animals): 100%
LR.4 lymphoma [3]; LR.4 + IMMP, week 2
  Body weight (control percent): 116 ± 6 %
  Survival (percent of live animals): 100%
LR.4 lymphoma [3]; LR.4 + IMMP, week 3
  Body weight (control percent): 125 ± 8 %
  Survival (percent of live animals): 100%
LR.4 lymphoma [3]; LR.4 + IMMP, week 4
  Body weight (control percent): 126 ± 8 %
  Survival (percent of live animals): 100%
LR.4 lymphoma [3]; LR.4 + IMMP, week 5
  Body weight (control percent): 154 ± 11 %
  Survival (percent of live animals): 100%
LR.4 lymphoma [3]; LR.4 + IMMP, week 6
  Body weight (control percent): 152 ± 12 %
  Survival (percent of live animals): 100%
LR.4 lymphoma [3]; LR.4 + IMMP, week 7
  Body weight (control percent): 150 ± 11 %
  Survival (percent of live animals): 100%
LR.4 lymphoma [3]; LR.4 + IMMP, week 8
  Survival (percent of live animals): 100%
LR.4 lymphoma [3]; LR.4 + IMMP, week 9
  Survival (percent of live animals): 67%
LR.4 lymphoma [3]; LR.4 + IMMP, week 10
  Survival (percent of live animals): 50%
LR.4 lymphoma [3]; LR.4 + IMMP, week 11
  Survival (percent of live animals): 34%
LR.4 lymphoma [3]; LR.4 + IMMP, week 12
  Survival (percent of live animals): 16%
LR.4 lymphoma [3]; LR.4 + IMMP, week 13
  Survival (percent of live animals): 16%
LR.4 lymphoma [3]; LR.4 + IMMP, week 14
  Survival (percent of live animals): 0%
LR.4 lymphoma [3]; last two weeks
  Decrease of tumor growth: about 33%
LR.4 lymphoma [3]; mouse, in vivo
  Gain in survival at 50%: greater than 4 weeks
  Time all animals kept alive longer than the untreated group: 5 weeks
Platelets [4]; normal animals
  Increase in blood platelets: ~100%
Platelets [4]; normal rats
  Platelets: 1560 ± 248* 10^3/μL
Platelets [5]; CC14 + IMMP, pretreatment 50 ng/kg each third day
  Platelets: 886 + 110^# 10^3/μL
Platelets [5]; IMMP alone, no CCI4, 50 ng/kg each third day
  Platelets: 1560 + 248* 10^3/μL
